The values that follow come from ChEMBL document CHEMBL3880411, “Multikinase inhibitors for use in the treatment of cancer” (2009).

In test [1] the target is Dual specificity mitogen-activated protein kinase kinase 1 (Homo sapiens, UniProt Q02750). In words: Inhibition of MEK1 (unknown origin) using ERK2 as substrate after 40 mins by ELISA.
The target in test [2] is Nuclear factor NF-kappa-B complex (Homo sapiens) (UniProt Q00653+P19838+Q04206). In words: Inhibition of NFkappaB (unknown origin). The format is protein-complex assay.
Sequence of Nuclear factor NF-kappa-B complex (Homo sapiens) (P19838 whole entry, looked up): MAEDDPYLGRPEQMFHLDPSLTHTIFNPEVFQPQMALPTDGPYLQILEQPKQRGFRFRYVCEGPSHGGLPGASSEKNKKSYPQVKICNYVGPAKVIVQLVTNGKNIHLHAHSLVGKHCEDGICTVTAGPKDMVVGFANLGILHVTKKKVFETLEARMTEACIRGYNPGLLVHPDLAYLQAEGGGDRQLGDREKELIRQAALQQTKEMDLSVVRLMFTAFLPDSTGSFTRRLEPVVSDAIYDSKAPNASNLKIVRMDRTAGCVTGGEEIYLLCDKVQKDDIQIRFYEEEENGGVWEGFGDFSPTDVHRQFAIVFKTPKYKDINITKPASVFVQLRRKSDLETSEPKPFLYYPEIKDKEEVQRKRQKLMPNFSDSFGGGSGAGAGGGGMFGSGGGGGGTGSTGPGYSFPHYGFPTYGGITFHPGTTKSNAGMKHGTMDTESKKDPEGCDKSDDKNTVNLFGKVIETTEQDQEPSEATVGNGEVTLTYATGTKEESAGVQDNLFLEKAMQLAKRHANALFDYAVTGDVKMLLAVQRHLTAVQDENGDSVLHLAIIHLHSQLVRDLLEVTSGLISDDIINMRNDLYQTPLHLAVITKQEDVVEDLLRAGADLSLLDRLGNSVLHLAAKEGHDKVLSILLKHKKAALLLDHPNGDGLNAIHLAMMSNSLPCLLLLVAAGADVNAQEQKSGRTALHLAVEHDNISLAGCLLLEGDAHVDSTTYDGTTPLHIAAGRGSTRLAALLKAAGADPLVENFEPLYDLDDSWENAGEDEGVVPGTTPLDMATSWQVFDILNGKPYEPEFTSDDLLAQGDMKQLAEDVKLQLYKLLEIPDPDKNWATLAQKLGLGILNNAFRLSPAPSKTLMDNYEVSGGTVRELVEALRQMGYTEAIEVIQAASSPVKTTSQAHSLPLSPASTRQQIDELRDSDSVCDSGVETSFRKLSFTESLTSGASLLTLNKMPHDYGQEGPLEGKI
Sequence of Nuclear factor NF-kappa-B complex (Homo sapiens) (Q00653 whole entry, looked up): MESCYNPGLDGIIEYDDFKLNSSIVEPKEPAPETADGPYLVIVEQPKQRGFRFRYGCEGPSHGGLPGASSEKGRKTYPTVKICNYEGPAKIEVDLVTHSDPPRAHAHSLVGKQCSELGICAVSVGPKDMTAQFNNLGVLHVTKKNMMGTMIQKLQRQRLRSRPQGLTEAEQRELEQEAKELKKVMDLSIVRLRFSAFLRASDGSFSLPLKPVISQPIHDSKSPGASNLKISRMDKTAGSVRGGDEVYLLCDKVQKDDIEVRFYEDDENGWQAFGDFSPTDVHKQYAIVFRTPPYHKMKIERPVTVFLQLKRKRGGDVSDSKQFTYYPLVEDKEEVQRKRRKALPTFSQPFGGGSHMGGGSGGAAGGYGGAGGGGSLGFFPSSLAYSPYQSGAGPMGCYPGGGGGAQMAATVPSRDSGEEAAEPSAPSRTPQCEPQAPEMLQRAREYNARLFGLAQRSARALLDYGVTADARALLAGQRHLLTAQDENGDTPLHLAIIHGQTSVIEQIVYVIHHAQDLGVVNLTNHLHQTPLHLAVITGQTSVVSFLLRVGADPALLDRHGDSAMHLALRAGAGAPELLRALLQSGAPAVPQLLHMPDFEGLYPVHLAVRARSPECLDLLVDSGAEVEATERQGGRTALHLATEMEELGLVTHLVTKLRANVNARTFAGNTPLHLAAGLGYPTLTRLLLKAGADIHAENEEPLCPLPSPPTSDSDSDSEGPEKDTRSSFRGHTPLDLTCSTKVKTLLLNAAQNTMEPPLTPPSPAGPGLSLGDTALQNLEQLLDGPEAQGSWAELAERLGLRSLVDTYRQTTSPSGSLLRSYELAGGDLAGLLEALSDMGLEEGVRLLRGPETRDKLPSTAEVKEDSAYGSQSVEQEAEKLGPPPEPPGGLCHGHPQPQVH
Sequence of Nuclear factor NF-kappa-B complex (Homo sapiens) (Q04206 whole entry, looked up): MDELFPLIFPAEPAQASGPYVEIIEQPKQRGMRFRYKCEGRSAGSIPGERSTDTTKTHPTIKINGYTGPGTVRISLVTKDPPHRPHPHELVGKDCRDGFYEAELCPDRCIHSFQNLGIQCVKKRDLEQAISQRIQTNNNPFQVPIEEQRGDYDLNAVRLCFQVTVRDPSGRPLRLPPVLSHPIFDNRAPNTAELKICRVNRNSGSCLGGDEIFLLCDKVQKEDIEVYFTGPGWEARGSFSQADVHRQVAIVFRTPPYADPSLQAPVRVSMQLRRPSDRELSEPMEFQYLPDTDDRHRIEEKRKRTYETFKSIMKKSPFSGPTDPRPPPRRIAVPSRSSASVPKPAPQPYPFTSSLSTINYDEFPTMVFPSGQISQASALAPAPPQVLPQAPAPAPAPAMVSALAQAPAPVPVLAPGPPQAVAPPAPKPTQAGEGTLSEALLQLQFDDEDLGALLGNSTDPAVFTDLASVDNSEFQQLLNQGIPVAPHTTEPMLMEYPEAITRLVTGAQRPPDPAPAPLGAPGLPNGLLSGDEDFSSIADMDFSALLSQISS

Calls of active or inactive are those of the source. The rule behind the calls is not given here.

Sequence of Dual specificity mitogen-activated protein kinase kinase 1 (Q02750 whole entry): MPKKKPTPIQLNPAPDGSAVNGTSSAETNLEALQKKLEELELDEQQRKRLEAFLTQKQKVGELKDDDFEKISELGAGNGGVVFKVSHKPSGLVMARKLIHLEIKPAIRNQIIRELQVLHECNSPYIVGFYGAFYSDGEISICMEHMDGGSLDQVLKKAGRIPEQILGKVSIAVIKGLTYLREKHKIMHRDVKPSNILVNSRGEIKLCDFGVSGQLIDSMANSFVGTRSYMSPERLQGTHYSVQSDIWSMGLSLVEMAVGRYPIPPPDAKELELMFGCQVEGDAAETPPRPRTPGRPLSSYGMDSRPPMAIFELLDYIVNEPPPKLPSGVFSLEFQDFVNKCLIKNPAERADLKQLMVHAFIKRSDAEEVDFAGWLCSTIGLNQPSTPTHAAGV

In turn, `C[C@@H]1/C=C\C(=O)[C@@H](O)[C@@H](O)C/C=C/c2cc(NCCOP(=O)(O)O)cc(O)c2C(=O)O[C@H]1C` returned an IC50 in test [1] above 330 nM. Moreover, the inhibition result in test [2] is “Active”.
For `C[C@@H]1/C=C\C(=O)[C@@H](O)[C@@H](O)C/C=C/c2cc(CCCn3ccnc3)cc(O)c2C(=O)O[C@H]1C` the same measures were 9.5 to 37 nM and “Active”.
As to `CNc1cc(O)c2c(c1)/C=C/C[C@H](O)[C@@H](O)C(=O)/C=C/[C@@H](C)[C@H](C)OC2=O`, the inhibition result in test [2] is “Active”.
As to `C[C@@H]1/C=C\C(=O)[C@@H](O)[C@@H](O)C/C=C/c2cc(NOCC(=O)O)cc(O)c2C(=O)O[C@H]1C`, the IC50 in test [1] is above 330 nM. In test [2], the inhibition result was “Active”.
For `C[C@@H]1/C=C\C(=O)[C@@H](O)[C@@H](O)C/C=C/c2cc(NCCN3CCCC3)cc(O)c2C(=O)O[C@H]1C` the same measures were 356 to 640 nM and “Active”.
For `C[C@@H]1/C=C\C(=O)[C@@H](O)[C@@H](O)C/C=C/c2cc(NCCO)cc(O)c2C(=O)O[C@H]1C` the same measures were 91 to 198 nM and “Active”.
In the case of `CCNc1cc(O)c2c(c1)/C=C/C[C@H](O)[C@@H](O)C(=O)/C=C/[C@@H](C)[C@H](C)OC2=O`, the inhibition result in test [2] is “Active”.
`CCNc1cc(O)c2c(c1)/C=C/C[C@@H]1OC(=O)O[C@@H]1C(=O)/C=C\[C@@H](C)[C@H](C)OC2=O`: the IC50 in test [1] turned out to be 145 nM. Moreover, the inhibition result in test [2] is “Active”.
For `C[C@@H]1/C=C\C(=O)[C@@H](O)[C@@H](O)C/C=C/c2cc(NCC(=O)N(C)C)cc(O)c2C(=O)O[C@H]1C` the same measures were 318 nM and “Active”.
On the same counts, the results for `C[C@@H]1/C=C\C(=O)[C@@H](O)[C@@H](O)C/C=C/c2cc(NCCn3ccnc3)cc(O)c2C(=O)O[C@H]1C` are 120 nM and “Active”.
On the same counts, the results for `CCNc1cc(O)c2c(c1)C#CC[C@H](O)[C@H](O)C(=O)/C=C\[C@@H](C)[C@H](C)OC2=O` are 182 nM and “Active”.
In test [1], `COCCNc1cc(O)c2c(c1)/C=C/C[C@H](O)[C@H](O)C(=O)/C=C\[C@@H](C)[C@H](C)OC2=O` gave an IC50 of 172 nM. Also, the inhibition entry in test [2] was “Active”.
For `CNC(=O)CNc1cc(O)c2c(c1)/C=C/C[C@H](O)[C@H](O)C(=O)/C=C\[C@@H](C)[C@H](C)OC2=O` the same measures were 657 nM and “Active”.
For `C[C@@H]1/C=C\C(=O)[C@@H](O)[C@@H](O)C/C=C/c2cc(NCC3CCNCC3)cc(O)c2C(=O)O[C@H]1C` the same measures were 356 nM and “Active”.
On to `C[C@@H]1/C=C\C(=O)[C@@H](O)[C@@H](O)C/C=C/c2cc(NCCNCC(O)CO)cc(O)c2C(=O)O[C@H]1C` (some centres undefined), for which the IC50 in test [1] is 658 nM. Moreover, the inhibition result in test [2] is “Active”.
On the same counts, the results for `COCCOCCOCCNCNc1cc(O)c2c(c1)/C=C/C[C@H](O)[C@H](O)C(=O)/C=C\[C@@H](C)[C@H](C)OC2=O` are 756 nM and “Active”.
`C[C@@H]1/C=C\C(=O)[C@@H](O)[C@@H](O)C/C=C/c2cc(NCC(=O)O)cc(O)c2C(=O)O[C@H]1C` had an IC50 in test [1] of 366 nM. Also, the inhibition entry in test [2] was “Active”.
In the case of `CNc1cc(O)c2c(c1)/C=C/C[C@H](O)[C@@H](O)C(=O)/C=C\[C@@H](C)[C@H](C)OC2=O`, in test [2], the inhibition entry is “Active”.
`C[C@@H]1/C=C\C(=O)[C@@H](O)[C@@H](O)C/C=C/c2cc(NOC[C@H](O)CO)cc(O)c2C(=O)O[C@H]1C` gave a concentration for half-maximal inhibition (IC50) in test [1] of 187 nM. The inhibition result in test [2] is “Active”.
On the same counts, the results for `C[C@@H]1/C=C\C(=O)[C@@H](O)[C@@H](O)C/C=C/c2cc(N3CCNC3=O)cc(O)c2C(=O)O[C@H]1C` are 484 nM and “Active”.
On the same counts, the results for `C[C@@H]1/C=C\C(=O)[C@@H](O)[C@@H](O)C/C=C/c2cc(NC3CC3)cc(O)c2C(=O)O[C@H]1C` are 657 nM and “Active”.
On the same counts, the results for `CCNc1cc(O)c2c(c1)/C=C/C[C@H](OC(=O)C(F)(F)F)[C@@H](O)C(=O)/C=C\[C@@H](C)[C@H](C)OC2=O` are 79 nM and “Active”.
Regarding `C[C@@H]1/C=C\C(=O)[C@@H](O)[C@@H](O)C/C=C/c2cc(NCC(N)=O)cc(O)c2C(=O)O[C@H]1C`, in test [1], the IC50 was in the range of 99 to 310 nM. Moreover, in test [2], the inhibition entry is “Active”.
Regarding `C[C@@H]1/C=C\C(=O)[C@@H](O)[C@@H](O)C/C=C/c2cc(N(CCNCC(O)CO)C(=O)OC(C)(C)C)cc(O)c2C(=O)O[C@H]1C` (some centres undefined), in test [2], the inhibition result is “Active”.
The molecule `C[C@@H]1/C=C\C(=O)[C@@H](O)[C@@H](O)C/C=C/c2cc(NCCNCCO)cc(O)c2C(=O)O[C@H]1C` displayed an IC50 in test [1] of 846 nM. In test [2], the inhibition entry is “Active”.
On the same counts, the results for `C[C@@H]1/C=C\C(=O)[C@@H](O)[C@@H](O)C/C=C/c2cc(N3CCOC3=O)cc(O)c2C(=O)O[C@H]1C` are 187 nM and “Active”.
On the same counts, the results for `C[C@@H]1/C=C\C(=O)[C@@H](O)[C@@H](O)C/C=C/c2cc(NCC(O)CO)cc(O)c2C(=O)O[C@H]1C` (some centres undefined) are 56 to 101 nM and “Active”.
For `C[C@@H]1/C=C\C(=O)[C@@H](O)[C@@H](O)C/C=C/c2cc(NCCN3CCN(C)CC3)cc(O)c2C(=O)O[C@H]1C` the same measures were 471 to 946 nM and “Active”.
In test [1], `C[C@@H]1/C=C\C(=O)[C@@H](O)[C@@H](O)C/C=C/c2cc(NCCN3CCOCC3)cc(O)c2C(=O)O[C@H]1C` gave an IC50 of 91 to 101 nM. Also, the inhibition entry in test [2] was “Active”.
